This note sets out measurements from patent US7094807B2, “Substituted aryl thioureas and related compounds; inhibitors of viral replication” (Achillion Pharmaceuticals, Inc., priority 2002, dated 2006).

Like-named read-outs stand apart in the source and are kept apart here. A value given as a limit tells only on which side of the number the result lay.

In the experiment the test system is HCV replicon. The experiment can be described thus: HCV replicon assay (NPT ELISA in HCV replicon-containing cells). The class given is cell-based. To be noted: Hepatitis C virus, 72 h. As for the experimental part:
The compounds claimed herein were tested for the ability to inhibit viral replication of the Hepatitis C replicon in cultured cells in which the HCV replicon construct has been incorporated. The HCV replicon system was described by Bartenschlager, et. al (Science, 285, pp. 110-113 (1999)). The replicon system is predictive of in vivo anti-HCV activity; compounds that are active in humans uniformly evidence activity in the replicon assay.
In this assay HCV replicon containing cells are treated with different concentrations of the test compound to ascertain the ability of the test compound to suppress replication of the HCV replicon. As a positive control, HCV replicon-containing cells are treated with different concentrations of interferon alpha, a known inhibitor of HCV replication. The replicon assay system includes Neomycin Phosphotransferase (NPT) as a component of the replicon itself in order to detect the transcription of replicon gene products in the host cell. Cells in which the HCV replicon is actively replicating have high levels of NPT; the level of NPT is proportional to HCV replication. […] The NPT level of each sample is measured using a captured ELISA.
A protocol for testing compounds for the ability to inhibit viral replication of the Hepatitis C replicon cultured cells in which the replicon construct has been incorporated, follows.
The HCV replicon contains, 5-′3′, the HCV-IRES, the neomycin phosphotransferase (neo) gene, the IRES of encephalomyocarditis virus, which directs translation of HCV sequences NS3 to NS5B, and the 3′-NTR. The sequence of the HCV replicon has been deposited in GenBank (Accession no. AJ242652).
The replicon is transfected into Huh-7 cells using standard methods such as electroporation.
The equipment and materials include, but are not limited to, Huh-7 HCV replicon-containing cells, maintenance media (DMEM (Dulbecco's modified Eagle media) supplemented with 10% FBS, L-glutamine, non-essential amino acids, penicillin (100 units/ml), streptomycin (100 micrograms/ml), and 500 micrograms/ml of Geneticin G418), screening media (DMEM supplemented with 10% FBS, L-glutamine, and non-essential amino acid, penicillin (100 units/ml) and streptomycin (100 micrograms/ml)), 96 well tissue culture plates (flat bottom), 96 well plates (U bottom for drug dilution), Interferon alpha for positive control, fixation reagent (such as methanol: acetone), primary antibody (rabbit anti-NPTII), secondary antibody: Eu-N1 l, and enhancement solution.
HCV replicon-containing cells are rinsed with once PBS once; 2 mls of trypsin is added. Cells are incubated at 37° C. in a 5% CO2 incubator for 3-5 minutes. 10 mls of complete medium is added to stop the reaction. Cells are blown gently, put into a 15 ml tube, and spun at 1200 rpm for four minutes. The trypsin/medium solution is removed and 5 mls of medium (500 ml DMEM (high glucose)) from BRL catalog #12430-054; 50 mls 10% FBS, […] (50 mg/ml, BRL 10131-035), 5 ml MEM non-essential amino acid (100×BRL #11140-050) and 5 ml pen-strep (BRL #15140-148) is added. The cells and media are mixed carefully
Cells are plated with screening medium (500 ml DMEM (BRL #21063-029), 50 ml FBS (BRL #10082-147) and 5 ml MEM non-essential amino acid (BRL #11140-050) at 6000-7500 cells/100 μl/well of 96 well plate (6-7.5×10^5 cells/10 ml/plate). Plates are placed into 37° C. 5% CO2 incubator overnight.
The following morning, drugs (test compounds or interferon alpha) are diluted in 96 well U bottom plates with media or DMSO/media, depending on the final concentration chosen for screening. Generally for 6 concentrations of each test compounds ranging from 10 micromolar to 0.03 micromolar are applied. 100 μl of the test compound dilution is placed in wells of the 96 well plate containing the HCV replicon cells. Media without drug is added to some wells as a negative controls. DMSO is known to affect cell growth. […]

Where [1] appears, read: HCV replicon-containing Huh-7 cells, three days incubation, read-out: EC50 for inhibition of replication of the HCV replicon.

For `CN(CCc1ccccc1)C(=S)NC(=O)COc1ccccc1` [Compound 35, 1-Methyl-1-phenethyl-3-(2-phenoxy-acetyl)-thiourea], the EC50 under setting [1] was under 30 µM.

For the compound `CCCCOC(=O)c1ccc(NC(=S)NC(=O)CSc2ccccc2)cc1` [Compound 36, 4-[3-(2-(Phenylsulfanyl)-acetyl)-thioureido]-benzoic acid butyl ester], the EC50 is 2.3 µM (read-out: EC50 for inhibition of viral RNA replicon replication in Huh9-13 cells) and under 30 µM under setting [1]. With `O=C(COc1ccccc1)NC(=S)Nc1ccc2c(c1)OCO2` [Compound 37, 1-Benzo[1,3]dioxol-5-yl-3-(2-phenoxy-acetyl)-thiourea], under setting [1], the EC50 is under 30 µM. For the compound `O=C(COc1ccccc1)N1CCN(c2cccc(OCc3ccccc3)c2)C1=S` [Compound 38], under setting [1], the EC50 is under 30 µM. On the same count and under the same terms, the same measure for `O=C(NC(=S)Nc1cccc(OCc2ccccc2)c1)C1Cc2ccccc2O1` (stereo not drawn) [Compound 39, 1-(3-Benzyloxy-phenyl)-3-(2,3-dihydro-benzofuran-2-carbonyl)-thiourea]: under 30 µM; for `O=C(NC(=S)Nc1cccc(OCc2ccccc2)c1)C1COc2ccccc2O1` (stereo not drawn) [Compound 40, 1-(3-Benzyloxy-phenyl)-3-(2,3-dihydro-benzo[1,4]dioxine-2-carbonyl)-thiourea]: under 30 µM; for `O=C(NC(=S)Nc1cccc(OCc2ccccc2)c1)C1CCc2ccccc2O1` (stereo not drawn) [Compound 41, 1-(3-Benzyloxy-phenyl)-3-(chroman-2-carbonyl)-thiourea]: under 30 µM. Same read-out and setting: next, `O=C(NC(=S)Nc1cccc(OCc2ccccc2)c1)c1ccc2ccccc2n1` [Compound 42, 1-(3-Benzyloxy-phenyl)-3-(quinoline-2-carbonyl)-thiourea]: under 30 µM.
